Experimental data taken from the supplement of paper PMC10307832.

Key:
Test in all cases: relative viability (nuclei count vs DMSO), 5 days (fraction); higher = more cells survive
[1] = compound: C1CCC(CC1)N(CCNCCC2=C3C(=C(C=C2)O)NC(=O)CO3)C(=O)CCNCCC4=CC(=C(C=C4)Cl)Cl [AZ505] + COc1cccc2cc(-c3nc([C@H]4CC[C@H](C(=O)O)CC4)n4ncnc(N)c34)[nH]c12 [OSI-027] (partner 0.5 µM)
Procedure, shortened: (§1)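 Relative viability equals treated-well nuclei counts divided by vehicle-well nuclei counts. Counts came from 4× images of lung cancer cell lines grown in 1536-well plates for 5 days after pin-tool dosing on the day after seeding. Dosing used one drug alone or a fixed anchor-drug dose plus five library-drug doses (not always all listed) in √10 steps, and values are medians of duplicate plates.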

[2] = compound: C1CCC(CC1)N(CCNCCC2=C3C(=C(C=C2)O)NC(=O)CO3)C(=O)CCNCCC4=CC(=C(C=C4)Cl)Cl [AZ505] + C[C@]1(O)C[C@@H](c2nc(-c3ccc4ccc(-c5ccccc5)nc4c3)c3c(N)nccn32)C1 [Linsitinib] (partner 1 µM)
Procedure, shortened: as §1

[3] = compound: C1CCC(CC1)N(CCNCCC2=C3C(=C(C=C2)O)NC(=O)CO3)C(=O)CCNCCC4=CC(=C(C=C4)Cl)Cl [AZ505] + N=C(N)NC(=N)NCCc1ccccc1 [Phenformin] (partner 250 µM)
Procedure, shortened: as §1

[4] = compound: Cn1c(=O)n(-c2ccc(C(C)(C)C#N)cc2)c2c3cc(-c4cnc5ccccc5c4)ccc3ncc21 [Dactolisib] + CCNC(=O)c1noc(-c2cc(C(C)C)c(O)cc2O)c1-c1ccc(CN2CCOCC2)cc1 [Luminespib] (partner 0.01 µM)
Procedure, shortened: as §1

Cell Line	relative viability ([1]; first compound 0.08 µM)	relative viability ([1]; first compound 0.253 µM)	relative viability ([1]; first compound 0.8 µM)	relative viability ([1]; first compound 2.53 µM)	relative viability ([1]; first compound 8 µM)	relative viability ([2]; first compound 0.08 µM)	relative viability ([2]; first compound 0.253 µM)	relative viability ([2]; first compound 0.8 µM)	relative viability ([2]; first compound 2.53 µM)	relative viability ([2]; first compound 8 µM)	relative viability ([3]; first compound 0.08 µM)	relative viability ([3]; first compound 0.253 µM)	relative viability ([3]; first compound 0.8 µM)	relative viability ([3]; first compound 2.53 µM)	relative viability ([3]; first compound 8 µM)	relative viability ([4]; first compound 0.002 µM)	relative viability ([4]; first compound 0.006325 µM)	relative viability ([4]; first compound 0.02 µM)	relative viability ([4]; first compound 0.06325 µM)	relative viability ([4]; first compound 0.2 µM)
NCI-H596	0.591	0.517	0.937	0.685	0.847	0.953	0.932	0.933	1	0.908	0.619	0.833	0.859	0.719	0.754	0.925	0.938	0.583	0.347	0.28
NCI-H322M	0.535	0.332	0.601	0.572	0.553	0.895	0.863	0.983	0.981	0.95	0.75	0.756	0.718	0.728	0.826	0.36	0.741	0.612	0.4	0.323
NCI-H2228	0.382	0.341	0.49	0.485	0.477	0.418	0.651	0.53	0.549	0.49	0.291	0.222	0.279	0.392	0.224	0.15	0.143	0.112	0.176	0.128
NCI-H647	0.615	0.698	0.488	0.619	0.693	1.08	1.36	1.04	1.29	1.22	0.574	0.314	0.479	0.488	0.702	0.153	0.149	0.109	0.0951	0.0891
SK-MES-1	0.501	0.53	0.534	0.577	0.583	0.89	0.922	0.97	0.879	1.03	0.485	0.618	0.643	0.67	0.601	0.828	0.744	0.349	0.286	0.171
NCI-H2085	0.664	0.536	0.733	0.772	0.858	0.817	0.923	0.93	0.918	0.968	0.68	0.613	0.664	0.677	0.694	0.387	0.388	0.374	0.208	0.239
NCI-H727	0.388	0.576	0.517		0.651	0.388	0.24	0.272	0.427	0.275	0.651	0.461	0.525		0.613	0.417	0.419	0.351	0.436	0.447
NCI-H441	0.66	0.595	0.614	0.579	0.703	0.513	0.51	0.662	0.543	0.509	0.742	0.814	0.905	0.907	0.786	0.446	0.331	0.305	0.285	0.206
LOU-NH91	0.634	0.674	0.638	0.672	0.656	0.838	0.92	0.857	0.915	0.962	0.685	0.684	0.604	0.805	0.729	0.378	0.295	0.351	0.316	0.317
NCI-H3122	0.927	0.917	1.05	0.875	0.996	0.963	1.03	0.911	1.01	0.967	0.369	0.353	0.37	0.357	0.414	0.134	0.0901	0.104	0.0762	0.085
NCI-H460	0.636	0.71	0.57	0.57	0.845	0.654	0.899	0.674	0.716	0.817	0.448	0.534	0.48	0.482	0.551	0.0375	0.0432	0.0185	0.0179	0.0243
NCI-H650	0.503	0.552	0.529	0.671	0.54	0.847	0.739	0.897	1.15	0.921	0.443	0.389	0.468	0.509	0.457	0.779	0.778	0.787	0.443	0.369
NCI-H661	0.681	0.8	0.666	0.695	0.715	0.583	0.567	0.544	0.491	0.646	0.285	0.261	0.288	0.328	0.296	0.929	0.99	0.866	0.391	0.496
NCI-H1793	0.245	0.228	0.344		0.37	0.766	0.769	0.932	1.03	1.06	0.248	0.338	0.454		0.368	0.155	0.15	0.164	0.163	0.165
NCI-H1734	0.515	0.539	0.573	0.559	0.576	0.654	0.908	0.801	0.949	0.883	0.393	0.351	0.402	0.406	0.425	0.151	0.211	0.196	0.184	0.169
LXF-289	0.701	0.748	0.763	0.668	0.959	0.884		0.973	0.943	0.96	0.488	0.491	0.512	0.509	0.514	0.698	0.688	0.669	0.478	0.403
